For this experiment, the target named is human BTK (Homo sapiens (Human), UniProt Q06187). In words: BTK activity, Invitrogen SelectScreen Biochemical Kinase Profiling Service, Z'-LYTE Screening Protocol. Conditions: Z'-LYTE assay, ATP concentration at Km. The method, then: BTK activity was determined using Invitrogen's SelectScreen® Biochemical Kinase Profiling Service using the Z′-LYTE Screening Protocol and Assay Conditions (ATP concentration at Km).

What is called IC50 is the concentration needed to halve the response being measured. A lower IC50 goes with higher potency.

Chain of human BTK (Q06187 whole entry): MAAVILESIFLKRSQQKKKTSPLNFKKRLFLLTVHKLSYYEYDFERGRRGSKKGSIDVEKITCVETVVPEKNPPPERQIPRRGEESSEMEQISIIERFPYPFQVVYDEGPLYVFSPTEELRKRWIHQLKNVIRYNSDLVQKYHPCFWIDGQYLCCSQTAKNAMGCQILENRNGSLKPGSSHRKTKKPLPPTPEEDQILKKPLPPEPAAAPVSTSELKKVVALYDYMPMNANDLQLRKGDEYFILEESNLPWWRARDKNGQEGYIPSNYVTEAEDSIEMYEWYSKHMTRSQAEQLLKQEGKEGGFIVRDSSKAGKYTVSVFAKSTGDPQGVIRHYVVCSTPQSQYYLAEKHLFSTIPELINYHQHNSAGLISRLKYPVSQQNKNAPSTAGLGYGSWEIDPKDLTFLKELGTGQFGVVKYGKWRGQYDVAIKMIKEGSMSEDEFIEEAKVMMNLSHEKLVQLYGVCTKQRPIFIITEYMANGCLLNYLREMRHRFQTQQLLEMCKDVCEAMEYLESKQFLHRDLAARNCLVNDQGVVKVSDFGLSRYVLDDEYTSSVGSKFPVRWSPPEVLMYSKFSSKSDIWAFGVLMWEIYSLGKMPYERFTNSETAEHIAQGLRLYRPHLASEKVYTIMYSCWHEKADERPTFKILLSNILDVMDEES

`C=CC(=O)Nc1cccc2c1OCc1[nH]c(=O)c3c(N)n(-c4cc(O)ccc4C)nc3c1-2` [Example 1, N-[14-amino-15-(5-hydroxy-2-methylphenyl)-12-oxo-8-oxa-11,15,16-triazatetracyclo[8.7.0.0^2,7.0^13,17]heptadeca-1(10),2(7),3,5,13,16-hexaen-6-yl]prop-2-enamide] gave an IC50 of less than 10 nM. `Cc1ccc(O)cc1-n1nc2c3c([nH]c(=O)c2c1N)COc1c(NC(=O)/C=C/CN(C)C)cccc1-3` [Example 2, (2E)-N-[14-amino-15-(5-hydroxy-2-methylphenyl)-12-oxo-8-oxa-11,15,16-triazatetracyclo[8.7.0.0^2,7.0^13,17]heptadeca-1(10),2(7),3,5,13,16-hexaen-6-yl]-4-(dimethylamino)but-2-enamide] yielded an IC50 of less than 10 nM. Molecule `CN(C)C/C=C/C(=O)Nc1cccc2c1OCc1[nH]c(=O)c3c(N)n(-c4ccc(Oc5ccccc5)cc4)nc3c1-2` [Example 3, (2E)-N-[14-amino-12-oxo-15-(4-phenoxyphenyl)-8-oxa-11,15,16-triazatetracyclo[8.7.0.0^2,7.0^13,17]heptadeca-1(10),2(7),3,5,13,16-hexaen-6-yl]-4-(dimethylamino)but-2-enamide] gave an IC50 of less than 10 nM. The result for `C=CC(=O)Nc1cccc2c1OCc1[nH]c(=O)c3c(N)n(-c4ccccc4F)nc3c1-2` [Example 4, N-[14-amino-15-(2-fluorophenyl)-12-oxo-8-oxa-11,15,16-triazatetracyclo[8.7.0.0^2,7.0^13,17]heptadeca-1(10),2(7),3,5,13,16-hexaen-6-yl]prop-2-enamide] reads 10 to 100 nM.

The record behind these values is patent US9956208B2, “Compounds for the treatment of cancer and inflammatory diseases” (C2 Pharmaceuticals, LLC, priority 2013, dated 2018).
